Assay results from PubChem BioAssay (NCI).
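96-well plates; 48 h exposure; 5 concentrations. Endpoints by linear interpolation between flanking doses. Not reached: highest tested concentration assigned. Here, GI50 denotes the concentration required for 50% inhibition of growth. The concentration for full growth arrest is given as TGI.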

What was measured:
Assay in all cases: NCI-60 cell line screen, 48 h
A549 NSCLC = test system: A549 NSCLC
COLO 205 colon = test system: COLO 205 colon
HCT-116 colon = test system: HCT-116 colon
MCF7 breast = test system: MCF7 breast
MOLT-4 leukemia = test system: MOLT-4 leukemia
NCI-H23 lung = test system: NCI-H23 lung
NCI/ADR-RES ovarian = test system: NCI/ADR-RES ovarian
OVCAR-5 ovarian = test system: OVCAR-5 ovarian
OVCAR-8 ovarian = test system: OVCAR-8 ovarian
SN12C renal = test system: SN12C renal

Row | SMILES | TGI (A549 NSCLC) [µM] | TGI (COLO 205 colon) [µM] | TGI (HCT-116 colon) [µM] | TGI (MCF7 breast) [µM] | TGI (MOLT-4 leukemia) [µM] | TGI (NCI-H23 lung) [µM] | TGI (NCI/ADR-RES ovarian) [µM] | TGI (OVCAR-5 ovarian) [µM] | TGI (OVCAR-8 ovarian) [µM] | TGI (SN12C renal) [µM] | GI50 (NCI/ADR-RES ovarian) [µM]
1 | COc1ccc(OC)c(C2Cc3cnc4nc(N)nc(N)c4c3C2)c1 (stereo unspecified) | > 100 | 49 | 55.1 | > 100 | 87.5 | > 100 | > 100 | 97.1 | 96.9 | 56.8 | 
2 | CC(C)(C)C(=O)OC(N)/C=C/c1ccccc1 (stereo unspecified) | > 100 | > 100 | > 100 | > 100 | > 100 | > 100 | > 100 | > 100 | > 100 | > 100 | 
3 | O=[N+]([O-])c1ccc(S(=O)(=O)N=Ic2ccccc2)cc1 | > 100 | > 100 | > 100 | > 100 | > 100 | > 100 | > 100 | > 100 | > 100 | > 100 | 
4 | O=C1NN=C2C=C(c3ccc(Cl)cc3)CC(c3cccc(Cl)c3)C12 (stereo unspecified) | 37.2 | 35.8 | 41 | 48.5 | 52.9 | > 100 | > 100 | 75.7 | > 100 | 57.5 | 
5 | COc1cc(C2SCC(=O)N2c2ccc(Cl)c(Cl)c2)cc(OC)c1OC (stereo unspecified) | > 100 | > 100 | > 100 | > 100 | > 67 | > 100 | > 100 | 98.3 | > 100 | > 100 | 
6 | Cc1cn(CCCCCOC(=O)NC(CCCN=C(N)N)C(=O)O)c(=O)[nH]c1=O (stereo unspecified) | > 100 | 63.2 | > 100 | > 100 | > 100 | > 100 | > 100 | > 100 | > 100 | > 100 | 
7 | CC1(C)OC(=C(C#N)C#N)C(C#N)=C1/C=C/c1ccncc1 | 34.1 | 3.27 | 3.46 | 4.28 | 4.42 | 5.56 | 4.13 | 8.11 | 3.29 | 5.75 | 
8 | O=C(c1cc(Cl)cc(Cl)c1)N1CCN(C(=O)c2cc(Cl)cc(Cl)c2)C1=S | 44.6 | 35.2 | 30 | 12.5 | 19.6 | 34.6 | > 100 | 42.2 | 44.5 | 31.1 | 31.7
9 | CC(C)=C1C(=O)C[C@]2(C)C[C@H]3/C(=C(/C)CCC12)CC[C@@]3(C)O (stereo partly specified) | > 50 | > 50 | > 50 | > 50 | > 50 | > 50 | > 50 | > 50 | > 50 | > 50 | 
10 | O=c1c2c(-c3ccccc3)onc2n(-c2ccccc2)c(=O)n1-c1ccccc1 | > 100 | > 100 | > 100 | > 100 | > 100 | 47.8 | 43.2 | 44 | 45.5 | > 100 | 
11 | O=C(O)c1cccnc1 | > 100 | > 100 | > 100 | > 100 | > 100 | > 100 | > 100 | > 100 | > 100 | > 100 | 
